PubChem BioAssay (NCI)
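Where inhibition never reached the appropriate level, the endpoint shown equals the highest concentration tested. Otherwise, values were interpolated linearly from a five-concentration, 48-hour dose response in 96-well plates. At the TGI there is no net growth.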

Tests used:
Test in all cases: NCI-60 cell line screen, 48 h
[1] = tested on: 786-0 renal
[2] = tested on: A498 renal
[3] = tested on: A549 NSCLC
[4] = tested on: ACHN renal
[5] = tested on: BT-549 breast
[6] = tested on: CAKI-1 renal
[7] = tested on: CCRF-CEM leukemia
[8] = tested on: COLO 205 colon
[9] = tested on: DU-145 prostate
[10] = tested on: EKVX NSCLC
[11] = tested on: HCC-2998 colon
[12] = tested on: HCT-116 colon
[13] = tested on: HCT-15 colon
[14] = tested on: HL-60(TB) leukemia
[15] = tested on: HOP-62 NSCLC
[16] = tested on: HOP-92 NSCLC
[17] = tested on: HS 578T breast
[18] = tested on: HT29 colon
[19] = tested on: IGROV1 ovarian
[20] = tested on: K-562 leukemia
[21] = tested on: KM12 colon
[22] = tested on: LOX IMVI melanoma
[23] = tested on: M14 melanoma
[24] = tested on: MALME-3M melanoma
[25] = tested on: MCF7 breast
[26] = tested on: MDA-MB-231 breast
[27] = tested on: MDA-MB-435
[28] = tested on: MOLT-4 leukemia
[29] = tested on: NCI-H226 lung
[30] = tested on: NCI-H23 lung
[31] = tested on: NCI-H460 lung
[32] = tested on: NCI-H522 lung
[33] = tested on: NCI/ADR-RES ovarian
[34] = tested on: OVCAR-3 ovarian
[35] = tested on: OVCAR-4 ovarian
[36] = tested on: OVCAR-5 ovarian
[37] = tested on: OVCAR-8 ovarian
[38] = tested on: PC-3 prostate
[39] = tested on: RPMI-8226 leukemia
[40] = tested on: SF-295 CNS
[41] = tested on: SF-539 CNS
[42] = tested on: SK-MEL-2 melanoma
[43] = tested on: SK-MEL-28 melanoma
[44] = tested on: SK-MEL-5 melanoma
[45] = tested on: SK-OV-3 ovarian
[46] = tested on: SN12C renal
[47] = tested on: SNB-19 CNS
[48] = tested on: SNB-75 CNS
[49] = tested on: SR leukemia
[50] = tested on: SW-620 colon
[51] = tested on: T-47D breast
[52] = tested on: TK-10 renal
[53] = tested on: U251 CNS
[54] = tested on: UACC-257 melanoma
[55] = tested on: UACC-62 melanoma
[56] = tested on: UO-31 renal

## COc1ccc(CN(Cc2ccc(OC)cc2)C(=O)CC2(O)CCc3ccccc3C2)cc1 (stereo unspecified)
[1]
  TGI: > 100 µM
[2]
  TGI: > 100 µM
[3]
  TGI: > 100 µM
[4]
  TGI: > 100 µM
[5]
  TGI: > 100 µM
[6]
  TGI: > 100 µM
[7]
  TGI: > 100 µM
[8]
  TGI: 57.4 µM
[9]
  TGI: > 100 µM
[10]
  TGI: > 100 µM
[11]
  TGI: > 100 µM
[12]
  TGI: > 100 µM
[13]
  TGI: > 100 µM
[14]
  TGI: 80.1 µM
[15]
  TGI: > 100 µM
[16]
  TGI: > 100 µM
[17]
  TGI: > 100 µM
[18]
  TGI: > 100 µM
[19]
  TGI: > 100 µM
[20]
  TGI: > 100 µM
[21]
  TGI: > 100 µM
[22]
  TGI: > 100 µM
[23]
  TGI: > 100 µM
[24]
  TGI: > 100 µM
[25]
  TGI: > 100 µM
[26]
  TGI: > 100 µM
[27]
  TGI: > 100 µM
[28]
  TGI: 56 µM
[29]
  TGI: > 100 µM
[30]
  TGI: > 100 µM
[31]
  TGI: > 100 µM
[32]
  TGI: > 100 µM
[33]
  TGI: > 100 µM
[34]
  TGI: > 100 µM
[35]
  TGI: > 100 µM
[36]
  TGI: > 100 µM
[37]
  TGI: > 100 µM
[38]
  TGI: > 100 µM
[39]
  TGI: > 100 µM
[40]
  TGI: > 100 µM
[41]
  TGI: > 100 µM
[42]
  TGI: > 100 µM
[43]
  TGI: > 100 µM
[44]
  TGI: > 100 µM
[45]
  TGI: > 100 µM
[46]
  TGI: > 100 µM
[47]
  TGI: > 100 µM
[48]
  TGI: > 100 µM
[49]
  TGI: > 100 µM
[50]
  TGI: > 100 µM
[51]
  TGI: > 100 µM
[52]
  TGI: > 100 µM
[53]
  TGI: > 100 µM
[54]
  TGI: > 100 µM
[55]
  TGI: > 100 µM
[56]
  TGI: > 100 µM
